Experimental data taken from PMC6566782, “Prodrugs for Skin Delivery of Menahydroquinone-4, an Active Form of Vitamin K2(20), Could Overcome the Photoinstability and Phototoxicity of Vitamin K2(20)” (International Journal of Molecular Sciences, 2019).

Experiments:
[1] = Photostability in ethanol under monochromatic light of different wavelengths, LC-MS/MS; format: physicochemical; conditions: 1 µM in ethanol, 25 °C
Procedure: To evaluate the effect of irradiation wavelength on photostability of MK-4 and MKH-ester derivatives, 1 μM solutions of MK-4, MKH-DMG, and MKH-SUC in ethanol were irradiated with a xenon light source monochromatic light at 279, 341, 373, 404, or 435 nm, and the concentration of each compound was measured by LC-MS/MS. The log of concentration of each compound was plotted against irradiation energy (Figure 3), and the rates and half-life energies of degradation were obtained from slopes (Table 2). […] Hydrolytic degradations of MKH-DMG and MKH-SUC to their corresponding monoesters were accelerated only at the short wavelength of 279 nm (Figure 3B,C).
Solutions of MK-4 and MKH derivatives in ethanol (1 µM) were irradiated with artificial sunlight (SOLAX 100 W XC-100 B, Seric Ltd., Tokyo, Japan) at 12,000 lx in quartz cells. Illuminance was measured using a digital luminometer (LX-1108, Mother Tool). Irradiation samples (1 µM in ethanol) were irradiated with artificial sunlight at 12,000 lx, and with monochromatic light (279, 341, 373, 404, and 435 nm) using a multi-wavelength irradiation spectrometer (MM 3, Bunkoukeiki Co., Ltd., Tokyo, Japan). Irradiation intensity was measured using an irradiation energy measurement power meter (MM 3, Bunkoukeiki Co., Ltd.).
LC-MS/MS was performed using an LCMS-8050 Liquid Chromatograph Mass Spectrometer (Shimadzu, Kyoto, Japan) and Shimadzu HPLC System (system controller (CBM-20A), pump (LD-20AD), degasser (DGU-20As), UV detector (SPD-20A), and auto injector (SIL-20AC HT)). Separations were performed on a CAPCELL PAK C18 UG120 (3 μm, 2.0 mm × 100 mm, Shiseido Co., Ltd., Tokyo, Japan) using a mobile phase of 10 mmol/L ammonium acetate and 0.1% acetic acid in methanol and water (97:3) at a flow rate of 0.4 mL/min. Column temperature was maintained at 40 °C. The mass spectrometer was equipped with an electrospray ionization and was run in positive ion mode. Identification and quantitation were based on MS/MS-multiple reaction monitoring mode using transition ions as follows: m/z 445 → 187 for the [M+H]^+ MK-4 adduct, m/z 445 → 187 for the [M + H]^+ chromenol adduct, 619 → 58 for the [M + H]^+ MKH-DMG adduct, m/z 532 → 58 for the [M + H]^+ MKH-mono-DMG adduct, m/z 664 → 187 for the [M + H]^+ MKH-SUC adduct, m/z 564 → 187 for the [M + H]^+ MKH-mono-SUC adduct, and m/z 461 → 81 for the [M + H]^+ MKO adduct.

[2] = tested on: HaCaT cells; assay: Intracellular ROS generation assay (DCFH-DA) with or without UVA irradiation; format: cell-based, Human; conditions: UVA irradiation 15 J/cm^2
Procedure: (§1) The in vitro phototoxicity of MK-4 and MKH derivatives were assessed by measuring the intracellular ROS generation and the viability of human epidermal keratinocyte cells (HaCaT) after UVA irradiation in the presence or absence of MK-4 and MKH derivatives. Intracellular ROS generation was determined using the cell permeable probe 2′,7′-dichlorofluorescein diacetate (DCFH-DA), which rapidly reacts with hydroxyl radicals. Cells without drug treatment or UVA irradiation were used as the control. ROS generation and cell viability are shown in Figure 5 and Figure 6, respectively.
Intracellular ROS generation was measured using 2′,7′-dichlorofluorescein diacetate (DCFH-DA; Invitrogen, Carlsbad, CA, USA) as a fluorescent probe. HaCaT cells were seeded at 1.0 × 10^5 cells/well in 96-well plates and cultured overnight. Thereafter, cells were washed with PBS and incubated with 10 µM DCFH-DA solution in PBS at 37 °C for 1 h. Following incubation, test compound solutions in PBS described above were added to each well and re-incubated for 1 h. After incubation, cells were irradiated with UVA at an irradiation intensity of 15 J/cm^2 and the fluorescence intensity (Ex: 485 nm, Em: 530 nm) was measured using an Infinite M200 PRO (Tecan Life Sciences).

[3] = tested on: HaCaT cells; assay: Cell viability assay (CellTiter-Glo) 24 h after UVA irradiation; format: cell-based, Human; conditions: 24 h after UVA irradiation 15 J/cm^2
Procedure: as §1
HaCaT cells were seeded at 1.0 × 10^5 cells/well in 96-well plates and cultured overnight. Thereafter, cells were washed with PBS, and test compound solutions in PBS described above were added to each well and re-incubated for 1 h. After incubation, cells were irradiated with UVA at an irradiation intensity of 15 J/cm^2. After irradiation, cells were washed twice with PBS and replaced in culture medium. After 24 h incubation, cell viability was measured using a CellTiter-Glo® Luminescent Cell Viability Assay (Promega, Madison, WI, USA).

[4] = tested on: HaCaT cells; assay: Intracellular MKO levels after treatment with sunlight-irradiated MK-4 and MKH derivatives; format: cell-based, Human; conditions: 48 h treatment, compound irradiated with sunlight 12,000 lx for 3 h
Procedure: To confirm whether MKH prodrugs could successfully deliver MKH to dermal cells under sunlight, the intracellular level of MKO in HaCaT cells was determined following administration of MK-4 and MKH derivatives in the presence or absence of artificial sunlight irradiation. […] MKO levels were increased after administration of MKH-DMG and MKH-SUC in sunlight, but these were approximately 60% that of the cells treated with their respective compounds in shading conditions.
HaCaT cells were seeded at 5.0 × 10^4 cells/well in 24-well plates and allowed to attach for 48 h. Cells were cultured in medium containing 5 µM MK-4, MKH-DMG, or MKH-SUC, then medium was removed and cells were washed twice with PBS. Cells were collected in 500 µL of PBS and sonicated. Cell homogenates were combined with an equal volume of methanol and three times volume of n-hexane, vortexed for 2 min, and centrifuged at 1750× g for 10 min. The organic layer was evaporated under N2 gas. The residue was reconstituted with 20 μL of methanol, and subjected to LC-MS/MS, as described below. The protein concentration of the cell homogenate was determined using a BCA protein assay kit (Thermo Fisher Scientific, Waltham, MA, USA).
Solutions of 200 µM MK-4, MKH-DMG, or MKH-SUC in ethanol were irradiated with artificial sunlight for 3 h at 12,000 lx in quartz cells. After irradiation, ethanol was evaporated under N2 gas. […]

- rate constant (k) of degradation ([1]; monochromatic light 279 nm): 0.533 J^−1·cm^2
- rate constant (k) of degradation ([1]; monochromatic light 341 nm): 0.422 J^−1·cm^2
- rate constant (k) of degradation ([1]; monochromatic light 373 nm): 0.151 J^−1·cm^2
- rate constant (k) of degradation ([1]; monochromatic light 435 nm): 0.035 J^−1·cm^2
- intracellular ROS level [2]: elevated in a dose-dependent manner
- intracellular MKO level after sunlight irradiation compared to shade [4]: seriously reduced
SMILES: CC(C)=CCC/C(C)=C/CC/C(C)=C/CC/C(C)=C/CC1=C(C)C(=O)c2ccccc2C1=O [MK-4, menaquinone-4, reference compound]
- cell viability [3]: decreased dose-dependently
